According to patent US8361970B2, “Growth factor binding molecules” (University of South Florida, priority 2000, dated 2013):
“And” between values parts separate entries of the source, which are not always exact repeats. Identical values can stand only once. Like-named read-outs stand apart in the source and are kept apart here. Positions of bridges follow the written chain, without caps; N, C: chain ends. Non-standard residues stand in square brackets, D forms with d.

Tests used:
Assay type in all cases: cell-based
[1] = tested on: PDGF-stimulated PDGFR tyrosine phosphorylation; experiment: Inhibition of PDGF-stimulated PDGFR tyrosine phosphorylation in NIH 3T3 cells (anti-phosphotyrosine Western blot); conditions: 5 min pretreatment, PDGF 10 ng/ml 10 min, read-out: (IC50) Inhibition PDGFR-Y-P
Experimental: Starved NIH 3T3 cells are pretreated with various growth factor binding agents (0-100 μM) for 5 min before stimulation with PDGF (10 ng/mL) for 10 min. The cells are then harvested and lysed, and the proteins from the lysates separated by SDS-PAGE and immunoblotted with an anti-phosphotyrosine antibody (4G10: Upstate Biotechnology, Lake Placid, N.Y.). The phosphotyrosine PDGF receptor bands are scanned, and the concentrations of growth factor binding molecules that inhibited the ability of PDGF to stimulate PDGFR tyrosine phosphorylation by 50% are determined.
(§1) Starved NIII 3T3 cells (PDGF-BB and PDGF-AA), NIH 3T3 cells overexpressing either EGFR (EGF) or Flk-1 (VEGF) are pre-treated with the indicated concentrations of GFB-111 for 5 minutes before 10 minutes of stimulation with PDGF-BB (10 ng/ml), PDGF-AA (10 ng/ml), EGF (100 ng/ml) and VEGF (50 ng/ml). Cell lysates are run on SDS-PAGE gels, then transferred to nitrocellulose and Western blotted with anti-phosphotyrosine (4G 10) or anti-phosphorylated Erk1/Erk2 (New England Biolabs).
A novel series of protein surface binding agents are prepared that bind PDGF and disrupt its signaling function. The molecules are composed of a central calix[4] arene scaffold to which is attached four peptide loop domains (FIG. 1). The peptide loop component is based on a cyclic hexapeptide in which two residues are replaced by a 3-aminomethylbenzoate dipeptide mimetic containing a 5-amino substituent for attachment to the scaffold. The resulting molecules (as shown in Table 1) contain a functionalized and variable surface approximately 500 Å^2 in area. Several peptide loop sequences are synthesized (Table 1) to provide molecular surfaces with negatively and positively charged as well as hydrophobic regions designed to bind to complementary areas on the target growth factor. To identify PDGF binding molecules from this library, a cell-based screening assay is developed with NIH 3T3 cells to detect molecules capable of blocking PDGF-BB-induced tyrosine autophosphorylation of the PDGF receptor. The ability of the identified molecules to bind PDGF-BB and inhibit interaction with its receptor is then confirmed biochemically. Starved NIH 3T3 cells are pretreated for 5 min with the synthetic molecules prior to stimulation with PDGF for 10 min. The effects of the molecules on PDGF-stimulated receptor tyrosine phosphorylation are determined by the antiphosphotyrosine Western blotting as described in Table 1. […] GFB-111 has four-fold symmetry containing 4 identical peptide loops with negative and hydrophobic residues, GlyAspGlyTyr (GDGY) (SEQ ID NO. 6), that are designed to be complementary to the PDGF surface involved in binding to PDGFR. The area of PDGF-BB that binds PDGFR is composed primarily of positive and hydrophobic residues.
Starved NIH 3T3 cells are pretreated with the various GFBs (0-100 μM) for 5 min. prior to stimulation with PDGF (10 ng/ml) for 10 min. The cells are then harvested lysed and the proteins from the lysates are separated by SDS-PAGE and immunoblotted with an anti-phosphotyrosine antibody (4G10, Upstate Biotechnology, Lake Placid, N.Y.). The phosphotyrosine PDGF receptor bands are scanned and the concentrations of GFBs that inhibit the ability of PDGF to stimulate PDGFR tyrosine phosphorylation by 50% are determined. Data for each compound is representative of at least two independent experiments. FIG. 1 illustrates the structure of growth factor binders. GFBs are synthesized as described by Park, H. D. et al., Protein surface recognition by synthetic receptors: A route to novel sub-micromolar inhibitors for chymotrypsin. J. Am. Chem. Soc. 121, 8-13 (1999); and Hamuro, Y. et al., A calixarene with four peptide loops: An antibody mimic for recognition of protein surfaces. Angew. Chemie Int. Ed. Engl. 36, 2680-2683 (1997), each herein incorporated by reference in its respective entirety.

[2] = tested on: IGF-1 stimulated IGF-1R tyrosine phosphorylation; experiment: Inhibition of IGF-1 stimulated IGFR tyrosine phosphorylation in IGFR/3T3 cells; conditions: for % Inhibition at 100 μM IGF1R-Y-P: IGFR/3T3, IGF-1 stimulated
Experimental: (§2) The ability of the GFB library to block the ability of IGF-1 to stimulate the IFG-1 R tyrosine phosphorylation and MAP kinase activation is evaluated using the cell assay described above with IGF-1R/3T3 cells as target cell. […] A preferred embodiment of the invention is a compound that binds to an insulin-like growth factor-1, of the general structure III, wherein R is n-butyl, n-propyl, or benzyl, and X1, X2, X3, and X4 optionally comprise identical cyclic peptide loops of the general structure II, and wherein R1, R2, R3, and R4 are each amino acid side chains that define a tetrapeptide sequence, wherein said tetrapeptide is covalently attached at the amino and carboxy termini of said tetrapeptide to a 3-aminomethyl-5-aminobenzamide linking group.

[3] = tested on: VEGF-stimulated Flk-1 tyrosine phosphorylation; experiment: Inhibition of VEGF-stimulated Flk-1 tyrosine phosphorylation in Flk-1/3T3 cells; conditions: Flk-1/3T3, VEGF stimulated; read-out: (IC50) Inhibition Flk-1-Y-P
Experimental: as §1
(§3) In order to identify molecules that would bind vascular endothelial growth factor (VEGF), Flk-1/3T3 cell-based assay is used that relies on VEGF-stimulation of its receptor, Flk-1, tyrosine phosphorylation and subsequent MAP-kinase activation. The assay used herein identical to that used for PDGF, except that NIH 3T3 cells that overexpress Flk-1 are used. GFB-116, which has four identical loops with the sequence GKGK (SEQ ID NO. 10) is shown to be very potent and selective toward blocking the ability of VEGF to stimulate Flk-1 tyrosine phosphorylation and subsequent MAP-kinase activation as measured by phospho erk-1 and erk-2 also referred to in the Table as p42 and p44 (Table 4A). A preferred embodiment of the invention is a compound that binds to a vascular endothelial growth factor, of the general structure III (above) in which R is n-butyl, n-propyl, or benzyl, and X comprise covalently attached identical cyclic peptide loops wherein R1, R2, R3, and R4 are each amino acid side chains, as broadly defined above, that define a tetrapeptide sequence, wherein said tetrapeptide is covalently attached at the amino and carboxy termini of said tetrapeptide to 3-aminomethyl-5-aminobenzamide linking group, and wherein said tetrapeptide sequence is GKGK (SEQ ID NO. 10), GDGY (SEQ ID NO. 6), or functionally related derivatives thereof.

[4] = tested on: VEGF-stimulated MAP kinase activation; experiment: Inhibition of VEGF-stimulated MAP kinase (p42/p44, Erk2/Erk1) activation in Flk-1/3T3 cells; conditions: Flk-1/3T3, VEGF stimulated
Experimental: as §1
(§4) In other experiments, starved NIH 3T3 cells (PDGF-AA, PDGF-BB, aFGF, bFGF), NIH 3T3 cells overexpressing EGFR. IGF-1R or Flk-1 and the human breast carcinoma SkBr3 that overexpresses ErbB2 (HRGβ) are pretreated with GFB-111 (100 μM) for 5 min before 10 min stimulation with the indicated growth factors at the concentrations shown above and aFGF (10 ng/ml), bFGF (50 ng/ml), IGF-1 (50 ng/ml) and HRGβ (10 ng/ml). Cell lysates are then immunoblotted with anti-phospho Erk1/Erk2 as described above.
as §3

[5] = tested on: PDGF-stimulated Erk1/Erk2 activation; experiment: Inhibition of PDGF-stimulated activation of MAPK Erk1/Erk2 (p44/p42) in NIH 3T3 cells; conditions: NIH 3T3, PDGF stimulated
Experimental: as §1, §4

[6] = tested on: IGF-1 stimulated MAP kinase activation; experiment: Inhibition of IGF-1 stimulated MAP kinase (p42/p44) activation in IGFR/3T3 cells; conditions: 100 μM; IGFR/3T3, IGF-1 stimulated
Experimental: as §4, §2

[7] = tested on: aFGF-stimulated MAP kinase activation of p42 and p44; experiment: Inhibition of aFGF stimulation of p42/p44 MAP kinase in NIH 3T3 cells; conditions: NIH 3T3
Experimental: as §4
The ability of growth factor binding agents in the library of growth factor binding agents to block an aFGF signal is measured by aFGF-stimulation of MAP kinase activation of p42 and p44 essentially as described above for VEGF. NIH 3T3 cells are used as the target cell. […] A preferred embodiment of the invention is a compound that binds to acidic fibroblast growth factor, of the general structure III, in which R is n-butyl, n-propyl, or benzyl, and X1, X2, X3, and X4 optionally comprise covalently attached cyclic peptide loops of the general structure II, wherein R1, R2, R3, and R4 are each amino acid side chains that define a tetrapeptide sequence, wherein said tetrapeptide is covalently attached at the amino and carboxy termini of said tetrapeptide to a 3-aminomethyl-5-aminobenzamide linking group, and wherein said tetrapeptide sequence is as given, for example, in Table 5.

[8] = tested on: EGF-stimulated EGFR tyrosine phosphorylation and Erk1/Erk2 activation; experiment: EGF-stimulated EGFR tyrosine phosphorylation and Erk1/Erk2 activation in NIH 3T3 cells overexpressing EGFR; conditions: GFB-111 at concentrations as high as 100 μM
Experimental: as §1

[9] = read-out: (IC50) Inhibition p42
[10] = read-out: (IC50) Inhibition p44
[11] = head p42/Erk2 (p42 for GFB-132 to 137), read-out: (IC50) Inhibition p42/Erk2

Row | Compound | IC50 [1] | % Inhibition at 100 μM IGF1R-Y-P [2] | IC50 [3] | IC50 [4, 9] | IC50 [4, 10] | IC50 [5, 11] | % Inhibition at 100 μM p42 [6] | % Inhibition at 100 μM p44 [6] | Block of aFGF-stimulation of MAP kinase activation of p42 and p44 [7] | IC50 [5, 10] | Blocking IGF-1 action ([2]; IGF-1R/3T3 cells) | Effect on EGF-stimulated EGFR tyrosine phosphorylation and Erk1/Erk2 activation [8]
1 | GDFD [GFB-105] | 2.4 µM | 1.3% | < 10 µM | > 100 µM | > 100 µM | 28 µM | – | – | – | – | – | –
2 | But-Calix scaffold with peptide loops 4-d-ADGD, (D-Ala)-Asp-Gly-Asp (SEQ ID NO. 3) ([dA]DGD; linker N-C via 3‑aminomethyl‑5‑aminobenzamide; also: peptide loops (4) attached to But-Calix scaffold) [GFB-108] | 9 µM | – | 10 µM | 50 µM | 50 µM | 57 µM | 67.8% | 80.1% | – | – | – | –
3 | GFGD [GFB-101] | > 500 µM | – | > 100 µM | > 100 µM | > 100 µM | > 500 µM | – | – | – | – | – | –
4 | GDGY [GFB-133] | 0.8 µM | – | – | – | – | 3.2 µM | – | – | very effective | 3 µM | – | –
5 | GDDG [GFB-127] | 32 µM | 36.8% and 31.8% | – | – | – | > 50 µM | 38.4% and 27.2% | 61.6% and 74.4% | very effective | – | – | –
6 | GDDG [GFB-126] | 1.9 µM | 51.7% and 51.0% | – | – | – | 4.6 µM | 63.9% and 47.0% | 71.2% and 79.2% | very effective | – | particularly effective | –
7 | CNc1cc2c(Nc3cccc(Br)c3)ncnc2cn1 [PD158780, reference compound] | – | – | – | – | – | – | – | – | – | – | – | blocks
8 | GDFD [GFB-102] | > 500 µM | – | – | > 100 µM | > 100 µM | – | – | – | – | – | – | –
9 | ADGD [GFB-112] | 29 µM | 0.6% | < 10 µM | 10 µM | 10 µM | 26 µM | −7.6% | 30.4% | – | – | – | –
10 | GDDD [GFB-106] | 8 µM | – | < 10 µM | < 10 µM | < 10 µM | 33 µM | – | – | very effective | – | – | –
11 | GDSD [GFB-113] | 2.8 µM | −18.9% | < 10 µM | 10 µM | 10 µM | 30 µM | −31.4% | 18.7% | – | – | – | –
12 | GDGD [GFB-107] | 2.5 µM | – | < 10 µM | – | – | 10 µM | 57.3% | 59.7% | – | – | – | –
